Data set [1] concerns NLRP3 inflammasome. The data set can be described thus: Metabolites on IL-1β production after LPS priming and ATP, murine macrophages. The data set is classed as cell-based, mouse. The following applies: 10 or 50 μM 16 hours, 200 ng/ml LPS three hours, 5 mM ATP one hour. The method, then: (§1) FIG. 7A-7B. Bacteria metabolites (MQ and JE) reduce IL-1β expression. Murine macrophages, (FIG. 7A) or THP-1 macrophages (FIG. 7B) were pre-treated with either 10 μM (3.5 μg/mL), 50 μM (17 μg/mL) of JE, 10 μM (4.9 μg/mL), 50 μM (24 μg/mL) of MQ or combination of both for 16 hours. Macrophages were primed with 200 ng/ml of LPS for three hours, followed by inflammasome activation with 5 mM ATP for one hour. Supernatants were collected, IL-1B was measured by ELISA. ***, P<0.001
(§2) Next, the metabolites were tested individually to assess their regulatory effects on mouse macrophages and human THP-1 macrophages. Similar to the bacterial <10 kD supernatant fraction, both JE and MQ inhibited LPS-stimulated macrophage production of TNFa and IL-6 (FIG. 5), indicating it suppresses TLR4 agonist-induced production of pro-inflammatory cytokines by macrophages.

The next data set concerns THP-1 macrophages. The data set can be described thus: Metabolites on LPS-stimulated TNFα/IL-6 production, THP-1 macrophages. The format is cell-based, human. The following applies: for IL-6 expression (FIG. 6): 10 μM JE, 10 μM MQ, 50 μM NC or combinations, 16 hours, 200 ng/ml LPS three hours; for LPS-stimulated macrophage production of IL-6 / LPS-stimulated macrophage production of TNFa: 10 or 50 μM, 16 hours pre-treatment, 200 ng/mL LPS 3 hours, ELISA. The method, then:
(§3) FIG. 5A-C. Bacteria metabolites (MQ, JE, and NC) reduce expression of pro-inflammatory cytokines. Mouse macrophages cells, (FIG. 5A, FIG. 5B) Human Corneal Epithelial Cells (FIG. 5C) or THP-1 macrophages (FIG. 5D) were pre-treated with either 10 μM (3.5 μg/mL), 50 μM (17 μg/mL) of JE, 10UM (4.9 μg/mL), 50 μM (24 μg/mL) of MQ or combination of both for 16 hours, followed by 200 ng/mL of LPS to Mouse macrophages/THP1 cells, and 100 ng/ml of Flagellum to HCECs for 3 hours. The supernatants were collected and TNFα, IL-6 concentration was measured by ELISA. *, P<0.05, **. P<0.01, ***, P<0.001.
FIG. 6. Bacteria metabolites (MQ, JE, and NC) reduce IL-6 expression. THP-1 macrophages were pre-treated with either 10 μM (3.5 μg/mL) of JE, 10 μM (4.9 μg/mL) of MQ or 50UM of NC or different combinations of all three for 16 hours, followed by 200 ng/ml of LPS for three hours. Supernatants were collected and IL-6 concentration was measured by ELISA. **. P<0.01.
as §2
(§4) Cell Culture: Multiple macrophage cell lines were used in these experiments. Primary murine BMDMs were differentiated through isolation and treatment with L929 conditioned medium. C57BL/6 macrophages and BMDMs were seeded in complete DMEM (10% FBS+1% Penicillin-Streptomycin) in 24-well plates at concentrations of 5×10^5 and 2.5×10^5, respectively. THP-1 cells were maintained and grown in complete RPMI-1640 medium. Cells were differentiated by stimulating with PMA (100 nM) for three hours at 37° C. with 5% CO-2 until adherent. They were then collected and plated at a density of 2.5×10^5 cells per well in 24-well plates with serum-free RPMI and incubated overnight.

Another data set relates to Mouse macrophages. The experiment in a line: Metabolites on LPS-stimulated TNFα/IL-6 production, mouse macrophages. The format is cell-based. The following applies: 10 or 50 μM, 16 hours pre-treatment, 200 ng/mL LPS 3 hours, ELISA. The method, then: as §3, §2, §4
Data set [2] relates to CACO-2 epithelium cells / B6 Macrophages. The data set can be described thus: CACO-2 trans-well system with macrophages in lower well, metabolites JE, MQ, NC. The data set is classed as cell-based. As to conditions: for ability to cross the tight junctions of epithelial cells: 50 μM in upper well on CACO-2 cells, overnight; for TNFα production by cells in lower chamber: 50 μM in upper well overnight, 200 ng/ml LPS 3 hours. The method, then:
FIG. 8A-8B. The assessment of the permeability of the differentiated CACO-2 epithelium cells after the treatment of JE, MQ, and NC in trans-well system. (FIG. 8A) CACO-2 cells were seeded in the upper well, and B6 Macrophages were placed into the lower well. 50UM of JE, MQ, NC, or combination of all three was added to CACO-2 cells in the upper well. Samples and controls were incubated overnight at 37° C., 5% CO2, followed by the addition of 200 ng/ml LPS to the upper and lower wells for 3 hours (Left: lower chambers, right: upper chambers). Cell culture supernatants were collected and an ELISA was used to measure TNFα or IL-6 concentrations. (FIG. 8B) FitC-dextrans (4 KDa) were added into the upper chamber simultaneously as the sample tests were added. A high concentration of hydrochloric acid (HCl) as a control was added to the upper chamber to disrupt the tight junctions. FitC-dextran collected from the bottom chamber was measured by a fluorescence spectrometer (excitation, 490 nm; emission, 520 nm). Data shown are representative mean±s.d. (***, p<0.001, **, p<0.01).
As stated before, commensal bacteria are non-invading and the metabolites must be able to cross the epithelium to mediate their functions and our earlier data confirmed <10 kD fraction pertained this ability. Therefore, we used the trans-well system to test if the identified metabolites were able to cross the epithelium. As we did previously, Caco-2 cells were culture for 2 weeks, to allow tight junctions to form. While the lower chamber contained C57BL/6 mouse BMDMs. We then measured the ability for NC, MQ and JE to cross the tight junctions without disrupting the integrity of the tight junctions. We did each separately and combined as well.

The test system of data set [3] is NLRP3 inflammasome. The data set can be described thus: Metabolites on IL-1β production after LPS priming and ATP, THP-1 macrophages. The format is cell-based, human. The following applies: 10 or 50 μM 16 hours, 200 ng/ml LPS three hours, 5 mM ATP one hour. The method, then:
as §1, §2

The values that follow come from patent US20250000874A1, “BACTERIAL METABOLITES AND THEIR USE IN REDUCING INFLAMMATION” (LOYOLA UNIVERSITY OF CHICAGO, priority 2023, published 2025).

For Prednicarbate [MQ], the “IL-β production stimulated by LPS and ATP” value (shortened to “IL-β production stimulated”) in the data set with NLRP3 inflammasome [1] is reported as “inhibited”. In addition, in the data set on THP-1 macrophages, the “IL-6 expression (FIG. 6)” value is given as “reduce”, the “LPS-stimulated macrophage production of IL-6” value is listed as “inhibited” and the “LPS-stimulated macrophage production of TNFa” value was “inhibited”. In the data set with Mouse macrophages, the “LPS-stimulated macrophage production of IL-6” value is listed as “inhibited” and the “LPS-stimulated macrophage production of TNFa” value is on record as “inhibited”. In data set [2], the “ability to cross the tight junctions of epithelial cells” value is “can pass through” and the “TNFα production by cells in lower chamber” value was “suppress”. In addition, the “IL-β production stimulated” value in the data set on NLRP3 inflammasome [3] is listed as “inhibited”.
As for `CCCCCCCCCCCCCCCC(=O)N[C@@H](C(=O)O)[C@H](C)O` [NC, N-Palmitoyl-D-Threonine], the “IL-6 expression (FIG. 6)” value in the data set on THP-1 macrophages is on record as “reduce”. Also, in data set [2], the “ability to cross the tight junctions of epithelial cells” value is given as “can pass through” and the “TNFα production by cells in lower chamber” value was “suppress”.
For `CC(=O)O[C@@H]1CC[C@H]2[C@H]3CC[C@H]4CC(F)(F)CC[C@]4(C)[C@H]3CC[C@]12C` [JE, 3,3-Difluoro-5-alpha-androstan-17-beta-yl acetate], the “IL-β production stimulated” value in the data set on NLRP3 inflammasome [1] and in the data set on NLRP3 inflammasome [3] was “inhibited” throughout. Moreover, in the data set on THP-1 macrophages, the “IL-6 expression (FIG. 6)” value is given as “reduce”. For the same compound, the “LPS-stimulated macrophage production of IL-6” value in the data set on THP-1 macrophages and in the data set on Mouse macrophages was “inhibited” throughout. Moreover, the “LPS-stimulated macrophage production of TNFa” value in the data set on THP-1 macrophages and with Mouse macrophages was “inhibited” in each case. Moreover, the “TNFα production by cells in lower chamber” value in data set [2] is on record as “suppress”.
